Columns and labels:
Mus musculus = test: Inhibition of Jak2 (unknown origin) in po dosed […] mouse assessed as inhibition of STAT5 phosphorylation measured after 1 to 8 hrs of dosing by PK/PD assay; assay type: functional, organism-based
Rattus norvegicus = organism: Rattus norvegicus; test: Unbound clearance in rat; assay type: ADME, organism-based; details: in vivo
[1] = Plasma protein binding in rat; assay type: ADME, cell-free; details: read-out: PPB (converted)
[2] = Plasma clearance in rat; assay type: ADME, organism-based
[3] = molecular target: T1, Tyrosine-protein kinase JAK2 (Homo sapiens, UniProt O60674); test: Inhibition of Jak2 (unknown origin) assessed as inhibition of STAT5 phosphorylation by cell-based assay
[4] = molecular target: T1, Tyrosine-protein kinase JAK2; test: Inhibition of recombinant Jak2 (unknown origin) using biotinylated synthetic peptide substrate by homogeneous time resolved fluorescence assay
[5] = Half life in rat; assay type: ADME, organism-based; details: in vivo
[6] = Volume of distribution in rat; assay type: ADME, organism-based; details: in vivo
[7] = Mus musculus, C56bl/6, read-out: IC50

T1 sequence (O60674 whole entry): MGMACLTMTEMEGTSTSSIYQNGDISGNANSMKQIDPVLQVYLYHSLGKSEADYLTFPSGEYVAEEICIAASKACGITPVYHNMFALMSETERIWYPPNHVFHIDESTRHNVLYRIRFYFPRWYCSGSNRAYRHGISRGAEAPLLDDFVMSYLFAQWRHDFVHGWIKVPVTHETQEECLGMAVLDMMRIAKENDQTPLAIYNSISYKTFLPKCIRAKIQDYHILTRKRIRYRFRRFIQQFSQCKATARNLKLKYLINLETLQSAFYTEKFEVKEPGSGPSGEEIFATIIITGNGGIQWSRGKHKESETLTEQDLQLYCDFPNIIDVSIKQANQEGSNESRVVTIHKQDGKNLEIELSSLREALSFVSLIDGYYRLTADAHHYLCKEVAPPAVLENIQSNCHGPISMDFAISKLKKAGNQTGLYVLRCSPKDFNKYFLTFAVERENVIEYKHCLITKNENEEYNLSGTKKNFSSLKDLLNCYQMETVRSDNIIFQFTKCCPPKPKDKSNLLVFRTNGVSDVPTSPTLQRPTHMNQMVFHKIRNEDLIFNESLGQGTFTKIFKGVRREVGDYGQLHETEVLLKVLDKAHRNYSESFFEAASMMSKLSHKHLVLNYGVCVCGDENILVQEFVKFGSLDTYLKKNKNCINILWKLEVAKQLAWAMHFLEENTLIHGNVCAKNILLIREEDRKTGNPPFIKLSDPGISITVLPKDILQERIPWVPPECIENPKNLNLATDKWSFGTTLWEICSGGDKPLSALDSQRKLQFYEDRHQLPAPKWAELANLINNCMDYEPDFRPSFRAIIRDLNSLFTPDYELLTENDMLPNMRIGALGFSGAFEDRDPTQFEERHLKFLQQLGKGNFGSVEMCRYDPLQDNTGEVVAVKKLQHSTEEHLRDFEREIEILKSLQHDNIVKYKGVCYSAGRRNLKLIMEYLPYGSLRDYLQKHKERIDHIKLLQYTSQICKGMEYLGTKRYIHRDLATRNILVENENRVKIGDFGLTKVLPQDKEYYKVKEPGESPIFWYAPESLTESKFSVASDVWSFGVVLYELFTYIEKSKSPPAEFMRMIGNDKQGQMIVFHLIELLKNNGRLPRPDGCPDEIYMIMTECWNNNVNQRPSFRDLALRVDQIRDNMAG

CC(C)(O)c1cc(Cl)c(Nc2nc3ccncc3c3c(=O)[nH]ccc23)c(Cl)c1
IC50 (Mus musculus; [7]): 1200 nM
CL (Rattus norvegicus): 1115 mL/min/kg
fraction unbound [1]: 0.026
clearance [2]: 29 mL/min/kg
IC50 [3]: 18 nM
IC50 [4]: 0.5 nM

O=c1[nH]ccc2c(Nc3c(Cl)cc(C(O)C(F)F)cc3Cl)nc3ccncc3c12 (stereo not drawn)
IC50 (Mus musculus; [7]): 1300 nM
CL (Rattus norvegicus): 571 mL/min/kg
fraction unbound [1]: 0.028
clearance [2]: 16 mL/min/kg
IC50 [3]: 26 nM
IC50 [4]: 0.2 nM

O=c1[nH]ccc2c(Nc3c(Cl)cc(-c4ccn[nH]4)cc3Cl)nc3ccncc3c12
IC50 (Mus musculus): Not Active
CL (Rattus norvegicus): 10000 mL/min/kg
fraction unbound [1]: 0.001
clearance [2]: 10 mL/min/kg
IC50 [3]: 37 nM
IC50 [4]: 1 nM

O=c1[nH]ccc2c(Nc3c(Cl)cncc3Cl)nc3ccncc3c12
IC50 [3]: 24 nM
IC50 [4]: 2 nM

O=c1[nH]ccc2c(Nc3c(F)cc(F)cc3Cl)nc3ccncc3c12
IC50 (Mus musculus; [7]): 2300 nM
CL (Rattus norvegicus): 875 mL/min/kg
half-life [5]: 48 min
fraction unbound [1]: 0.048
Vd [6]: 2.6 L/kg
clearance [2]: 41 mL/min/kg
IC50 [3]: 15 nM
IC50 [4]: 0.9 nM

CC(C)[C@@H](Nc1nc2cc[nH]c(=O)c2c2cnccc12)C(F)(F)F
clearance [2]: 68 mL/min/kg

CC(C)[C@H](Nc1nc2ccncc2c2c(=O)[nH]ccc12)C(F)(F)F
IC50 [3]: 170 nM
IC50 [4]: 10 nM

O=c1[nH]ccc2c(Nc3c(Cl)cc(C(F)(F)F)cc3Cl)nc3ccncc3c12
IC50 [3]: 49 nM
IC50 [4]: 1 nM

O=c1[nH]ccc2c(Nc3c(Cl)cc(OC(F)(F)F)cc3Cl)nc3ccncc3c12
IC50 [3]: 140 nM
IC50 [4]: 3 nM

O=c1[nH]ccc2c(Nc3c(Cl)cc(F)cc3Cl)nc3ccncc3c12
IC50 [3]: 14 nM
IC50 [4]: 0.8 nM

NS(=O)(=O)c1cc(Cl)c(Nc2nc3ccncc3c3c(=O)[nH]ccc23)c(Cl)c1
IC50 (Mus musculus): Not Active
clearance [2]: 50 mL/min/kg
IC50 [3]: 113 nM
IC50 [4]: 0.15 nM

O=c1[nH]ccc2c(Nc3c(F)cc(F)cc3F)nc3ccncc3c12
IC50 [3]: 90 nM
IC50 [4]: 7 nM

CC(O)c1cc(Cl)c(Nc2nc3ccncc3c3c(=O)[nH]ccc23)c(Cl)c1 (stereo not drawn)
IC50 (Mus musculus; [7]): 400 nM
CL (Rattus norvegicus): 1125 mL/min/kg
fraction unbound [1]: 0.048
clearance [2]: 54 mL/min/kg
IC50 [3]: 12 nM
IC50 [4]: 0.6 nM

O=c1[nH]ccc2c(NC3CC3)nc3ccc(F)cc3c12
IC50 [4]: 200 nM

O=c1[nH]ccc2c(Nc3c(F)cccc3C(F)(F)F)nc3ccncc3c12
IC50 [3]: 90 nM
IC50 [4]: 9 nM

O=c1[nH]ccc2nc(NC3CC3)c3ccc(F)cc3c12
IC50 [4]: 100 nM

— ChEMBL document CHEMBL3124786, “The discovery of reverse tricyclic pyridone JAK2 inhibitors. Part 2: lead optimization” (Bioorg Med Chem Lett, 2014)
